For 25 molecules, inhibition and IC50 results are on record in patent publication US20240254139A1, “FUSED ISOXAZOLYL COMPOUNDS AS KAT6A INHIBITORS” (Aurigene Oncology Limited, priority 2021, published 2024).

The assay has as its target T1, human-KAT6A (MYST domain 507-778 aa) (Homo sapiens, UniProt Q92794).
T1 construct: human-KAT6A (MYST domain 507-778 aa)
Put plainly: KAT6A biochemical assay (TR-FRET). The settings on record: for inhibition at 1 µM: compound at 1 μM, percent inhibition of internal assay controls; for IC50: dose-response, sigmoidal curve fit, groups A, B, C; for inhibition at 10 µM: compound at 10 μM (stated in the cell), read-out: Percent Inhibition (at 10 μM). From the text:
A TR-FRET based method was used for assaying compounds of the invention for KAT6A enzyme inhibitory activity. TR-FRET is homogeneous proximity assay where Europium-labelled anti-acetyl lysine antibody binds to the acetylated substrate labelled with biotin which in turn binds to streptavidin labelled APC fluorescence acceptor. Europium can transfer energy to APC in the complex and the interaction of two dye-labelled binding partners is detected by the energy transfer between a donor and an acceptor dye, and the subsequent light emission by the acceptor dye. KAT6A transfer an acetyl group from acetyl CoA to lysine amino acids of histones/target proteins. Typically, 5 μL of human-KAT6A (MYST domain 507-778 aa) in assay buffer (100 mM Tris HCl (pH 7.8), 15 mM NaCl, 1 mM EDTA, 0.01% Tween-20, 0.02% BSA, 1 mM DTT) is added to a 384-well plate containing 5 μL of selected test compound in final 1% DMSO, serially diluted in 1:3 in an 8-10-point titration. The selected compound of the present invention and enzyme are incubated for 30 min at room temperature. Next, 5 μL of substrate mix containing histone H4 peptide and acetyl-CoA in assay buffer is added to the plate. The final concentrations of H4 peptide and acetyl-CoA are 200 nM and 600 nM respectively. Following 30 min reaction at room temperature, 5 μL of detection mix containing Europium labelled anti-acetyl antibody and streptavidin-APC is added to the reaction wells. Plate is further incubated for 45 min at room temperature and is read in TR-FRET mode (Ex: 340 nm; Em: 615 nm and 665 nm) on a plate reader.
Selected compounds of the present invention were screened in the above-mentioned assay procedure and IC50 values were determined by fitting the dose-response data to sigmoidal curve fitting equation using Graph pad prism software V8. […]
A general note: Time-resolved FRET reads energy transfer from a long-lived donor to a nearby acceptor.

T1 sequence (Q92794 507-778): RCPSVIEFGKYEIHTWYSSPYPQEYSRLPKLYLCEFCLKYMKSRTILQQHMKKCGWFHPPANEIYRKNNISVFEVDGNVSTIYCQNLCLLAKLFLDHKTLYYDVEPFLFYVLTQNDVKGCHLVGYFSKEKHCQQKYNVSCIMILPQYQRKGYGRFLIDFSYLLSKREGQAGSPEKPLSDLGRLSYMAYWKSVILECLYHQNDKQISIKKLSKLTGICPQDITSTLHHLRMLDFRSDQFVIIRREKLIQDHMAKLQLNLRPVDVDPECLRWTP

One may read the inhibition as the percentage by which the read-out fell short of the control. In general, IC50 refers to the concentration at which inhibition is half-maximal. Low readings indicate greater potency, high ones weaker potency. Turning to `COc1ccccc1S(=O)(=O)Nc1noc2nc(-c3ccccc3)cc(OC)c12` [Compound 8, 2-methoxy-N-(4-methoxy-6-phenylisoxazolo[5,4-b]pyridin-3-yl)benzenesulfonamide], at 1 µM the inhibition was 82% and the concentration for half-maximal inhibition (IC50) fell in the range of 110 to 200 nM.
With `COc1cc(-c2ccccc2)nc2onc(NS(=O)(=O)c3ccccc3OC(F)(F)F)c12` [Compound 7, N-(4-methoxy-6-phenylisoxazolo[5,4-b]pyridin-3-yl)-2-(trifluoromethoxy)benzenesulfonamide], 1 µM produced 25% inhibition.
As for `COc1ccccc1-c1cc(OC)c2c(NS(=O)(=O)c3c(OC)cccc3OC)noc2n1` [Compound 10, 2,6-dimethoxy-N-(4-methoxy-6-(2-methoxyphenyl)isoxazolo[5,4-b]pyridin-3-yl)benzenesulfonamide], the inhibition at 1 µM stood at 100% and the IC50 is < 100 nM.
Consider `COc1cccc(OC)c1S(=O)(=O)Nc1noc2nc(N(C)C3CCCCC3)cc(OC)c12` [Compound 27, N-(6-(cyclohexyl(methyl)amino)-4-methoxyisoxazolo[5,4-b]pyridin-3-yl)-2,6-dimethoxybenzenesulfonamide], for which the inhibition at 1 µM is 17%.
The same measure, in the same setting: the value for `CCNc1cc(OC)c2c(NS(=O)(=O)c3c(OC)cccc3OC)noc2n1` [Compound 38, N-(6-(ethylamino)-4-methoxyisoxazolo[5,4-b]pyridin-3-yl)-2,6-dimethoxybenzenesulfonamide] was 95%.
Regarding `COc1cccc(OC)c1S(=O)(=O)Nc1noc2cc(-c3ccccc3)cnc12` [Compound 6, 2,6-dimethoxy-N-(6-phenylisoxazolo[4,5-b]pyridin-3-yl)benzenesulfonamide], the inhibition at 10 µM worked out at 58%.
Consider `COc1cccc(OC)c1S(=O)(=O)Nc1noc2nc(Cn3cccn3)cc(OC)c12` [Compound 35, N-(6-((1H-pyrazol-1-yl)methyl)-4-methoxyisoxazolo[5,4-b]pyridin-3-yl)-2,6-dimethoxybenzenesulfonamide], for which the 50% inhibitory concentration (IC50) was > 200 nM.
For `COc1cc(-c2ccccc2)nc2onc(NS(=O)(=O)c3c(F)cccc3F)c12` [Compound 25, 2,6-difluoro-N-(4-methoxy-6-phenylisoxazolo[5,4-b]pyridin-3-yl)benzenesulfonamide], 1 µM produced 30% inhibition.
Consider `COc1cccc(OC)c1S(=O)(=O)Nc1noc2nc(C3=CCCC3)cc(OC)c12` [Compound 32, N-(6-(cyclopent-1-en-1-yl)-4-methoxyisoxazolo[5,4-b]pyridin-3-yl)-2,6-dimethoxybenzenesulfonamide], for which the half-maximal inhibitory concentration (IC50) fell in the range of 110 to 200 nM.
`COc1cccc(OC)c1S(=O)(=O)Nc1noc2nc(N3CC(F)(F)C3)cc(OC)c12` [Compound 28, N-(6-(3,3-difluoroazetidin-1-yl)-4-methoxyisoxazolo[5,4-b]pyridin-3-yl)-2,6-dimethoxybenzenesulfonamide]: the inhibition at 1 µM was 80% and the half-maximal inhibitory concentration (IC50) is > 200 nM.
Regarding `COc1cccc(OC)c1S(=O)(=O)Nc1noc2nc(-c3ccccc3)nc(OC)c12` [Compound 2, 2,6-dimethoxy-N-(4-methoxy-6-phenylisoxazolo[5,4-d]pyrimidin-3-yl)benzenesulfonamide], the inhibition at 1 µM was determined as 100% and the IC50 is < 100 nM.
For the molecule `CCc1ccc(OC)c(S(=O)(=O)Nc2noc3nc(-c4ccccc4)cc(OC)c23)c1` [Compound 33, 5-ethyl-2-methoxy-N-(4-methoxy-6-phenylisoxazolo[5,4-b]pyridin-3-yl)benzenesulfonamide], the concentration for half-maximal inhibition (IC50) was < 100 nM.
For `COc1cccc(OC)c1S(=O)(=O)Nc1noc2nc(N3CCOCC3)cc(OC)c12` [Compound 14, 2,6-dimethoxy-N-(4-methoxy-6-morpholinoisoxazolo[5,4-b]pyridin-3-yl)benzenesulfonamide], at 1 µM the inhibition was 49%.
`COc1cccc(OC)c1S(=O)(=O)Nc1noc2nccnc12` [Compound 22, N-(isoxazolo[4,5-b]pyrazin-3-yl)-2,6-dimethoxybenzenesulfonamide] gave an inhibition at 1 µM of 12%.
On to `COc1cc(C(C)(C)C)ccc1S(=O)(=O)Nc1noc2nc(-c3ccccc3)cc(OC)c12` [Compound 34, 4-(tert-butyl)-2-methoxy-N-(4-methoxy-6-phenylisoxazolo[5,4-b]pyridin-3-yl)benzenesulfonamide], for which the inhibition at 10 µM came to 100% and the IC50 is > 200 nM.
`COc1cc(-c2ccccc2)nc2onc(NS(=O)(=O)c3ccccc3F)c12` [Compound 26, 2-fluoro-N-(4-methoxy-6-phenylisoxazolo[5,4-b]pyridin-3-yl)benzenesulfonamide] returned an inhibition at 1 µM of 23%.
Regarding `CNc1cc(OC)c2c(NS(=O)(=O)c3c(OC)cccc3OC)noc2n1` [Compound 37, 2,6-dimethoxy-N-(4-methoxy-6-(methylamino)isoxazolo[5,4-b]pyridin-3-yl)benzenesulfonamide], the inhibition at 1 µM came to 34%.
The same measure, in the same setting: then `COc1ccc(CN(C)c2cc(OC)c3c(NS(=O)(=O)c4c(OC)cccc4OC)noc3n2)cc1` [Compound 29, 2,6-dimethoxy-N-(4-methoxy-6-((4-methoxybenzyl)(methyl)amino)isoxazolo[5,4-b]pyridin-3-yl)benzenesulfonamide], with 38%; and `COc1cccc(OC)c1S(=O)(=O)Nc1noc2cc(-c3ccccc3)n(C)c(=O)c12` [Compound 4, 2,6-dimethoxy-N-(5-methyl-4-oxo-6-phenyl-4,5-dihydroisoxazolo[4,5-c]pyridin-3-yl)benzenesulfonamide], with 23%.
`CCOc1ccccc1S(=O)(=O)Nc1noc2nc(-c3ccccc3)cc(OC)c12` [Compound 9, 2-ethoxy-N-(4-methoxy-6-phenylisoxazolo[5,4-b]pyridin-3-yl)benzenesulfonamide]: the inhibition at 1 µM amounted to 62% and the IC50 was > 200 nM.
For the molecule `COc1cc(-c2ccccc2)nc2onc(NS(=O)(=O)c3ccccc3-c3ccccc3)c12` [Compound 5, N-(4-methoxy-6-phenylisoxazolo[5,4-b]pyridin-3-yl)-[1,1′-biphenyl]-2-sulfonamide], the inhibition at 1 µM was 52% and the half-inhibitory concentration (IC50) is < 100 nM.
For the molecule `COc1cccc(OC)c1S(=O)(=O)Nc1noc2nc(N3CCCCC3)cc(OC)c12` [Compound 12, 2,6-dimethoxy-N-(4-methoxy-6-(piperidin-1-yl)isoxazolo[5,4-b]pyridin-3-yl)benzenesulfonamide], the inhibition at 1 µM was found to be 54%.
`CCN(Cc1ccc(OC)cc1)c1cc(OC)c2c(NS(=O)(=O)c3c(OC)cccc3OC)noc2n1` [Compound 30, N-(6-(ethyl(4-methoxybenzyl)amino)-4-methoxyisoxazolo[5,4-b]pyridin-3-yl)-2,6-dimethoxybenzenesulfonamide] showed an inhibition at 1 µM of 56%.
In turn, `COc1cccc(OC)c1S(=O)(=O)N(C)c1noc2nc(-c3ccccc3)cc(OC)c12` [Compound 36, 2,6-dimethoxy-N-(4-methoxy-6-phenylisoxazolo[5,4-b]pyridin-3-yl)-N-methylbenzenesulfonamide] showed an inhibition at 1 µM of 0%.
`COc1cccc(OC)c1S(=O)(=O)Nc1noc2ncncc12` [Compound 20, N-(isoxazolo[5,4-d]pyrimidin-3-yl)-2,6-dimethoxybenzenesulfonamide]: the inhibition at 1 µM came out at 14%.
